In ChEMBL document CHEMBL5604061, “ASAP - WNV NS2B-NS3 protease fluorescence dose response” (2024):
Several values for one entry are separate records, joined by “and”; a condition that tells them apart may be missing. Equal entries are not always repeated.

molecular target: T1, NS3 (West Nile virus, UniProt K4FQI5); experiment: Functional biochemical assay to identify treatments for viral infectious disease that targets West Nile NS2B-NS3 protease. Utilizing a direct enzyme activity measurement method, reading the fluorescence intensity is used to characterize the relative potency of inhibitors as IC50.; parameters: species or system NY-99
T1 sequence (K4FQI5 whole entry): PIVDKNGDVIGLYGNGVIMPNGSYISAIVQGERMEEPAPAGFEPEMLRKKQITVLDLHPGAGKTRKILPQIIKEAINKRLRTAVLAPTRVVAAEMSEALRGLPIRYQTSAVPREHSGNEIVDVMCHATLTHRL

Compound	IC50
O=C(Nc1ccc2c(c1)CNC2)c1cc(Cl)cc2nn(C3CCC3)cc12	14.7 µM
O=C(Nc1ccc2c(c1)CNC2)c1cc(Cl)ccc1-n1cncn1	42.7 µM
O=C(Nc1ccc2c(c1)CNC2)c1cc(F)cc2[nH]c(-c3ccc(F)cc3)nc12	5.37 µM
O=C(NC1CCOCC1)[C@H](Nc1ccc2c(c1)CNC2)c1cc(Cl)cc(C2CC2)c1	0.186 µM
N[C@H]1Cc2ccc(NC(=O)c3cc(Cl)cc4[nH]ncc34)cc2C1	51.6 µM
CC(C)NC(=O)[C@H](Nc1ccc2c(c1)CNC2)c1cccc2cn[nH]c12	14.1 µM
O=C(Nc1ccc2c(c1)CNC2)c1cc(F)cc2[nH]cnc12	13.5 µM
N=C(N)NCCC[C@H](NC(=O)[C@H](Cc1ccc(CN)cc1)NC(=O)c1ccccc1)B(O)O	0.065 µM and 0.217 µM
Cc1ccccc1-c1nc2c(C(=O)Nc3ccc4c(c3)CNC4)cc(F)cc2[nH]1	8.51 µM
O=C(Nc1ccc2c(c1)CNC2)c1cccc2cn[nH]c12	9.75 µM
COc1cc(Cl)cc(C(=O)Nc2ccc3c(c2)CNC3)c1	40.7 µM
CC(C)NC(=O)[C@H](Nc1ccc2c(c1)CN(C)C2)c1cc(Cl)cc2[nH]ncc12	1.67 µM
O=C(Nc1ccc2c(c1)CNC2)c1cc(F)cc2[nH]ncc12	1.42 µM
Cn1ncc2c(C(=O)Nc3ccc4c(c3)CNC4)cc(Br)cc21	47.2 µM
CC(C)(C)c1nc2c(C(=O)Nc3ccc4c(c3)CNC4)cc(Br)cc2[nH]1	> 99.5 µM
Cc1nc2c(C(=O)Nc3ccc4c(c3)CNC4)cc(Cl)cc2[nH]1	> 12.4 µM
O=C(Nc1ccc2c(c1)CNC2)c1cc(Cl)cc2nn(-c3ccccc3)nc12	21.5 µM
CC(C)(c1nc2c(C(=O)Nc3ccc4c(c3)CNC4)cc(F)cc2[nH]1)S(C)(=O)=O	9.71 µM
CS(=O)(=O)NC(=O)c1cc(Cl)ccc1NS(=O)(=O)c1ccc(Oc2ccccc2Cl)cc1	74.5 µM
O=C(Nc1ccc2c(c1)CNC2)c1cc(F)cc2[nH]c(-c3cnccc3O)nc12	9.93 µM
O=C(Nc1ccc2c(c1)CN[C@H]2C[C@H](O)CO)c1cc(F)cc2[nH]ncc12	2.41 µM
O=C(Nc1ccc2c(n1)CNC2)c1cc(Cl)cc2[nH]ncc12	35.2 µM
Cn1cc(CCc2nc3c(C(=O)Nc4ccc5c(c4)CNC5)cc(Cl)cc3[nH]2)cn1	44.5 µM
O=C(Nc1ccc2c(c1)CNC2)c1ccc2[nH]cc(C3CCNCC3)c2c1	11.5 µM
O=C(NCC(F)F)[C@H](Nc1ccc2c(c1)CNC2)c1cc(Cl)cc2c1CCC2	0.42 µM

Compound	IC50
NCCc1cc(Cl)cc(C(=O)Nc2cccc(CN)c2)c1	5.52 µM
NCCc1cccc(NC(=O)c2cc(Cl)cc3[nH]ncc23)c1	94.5 µM
O=C(Nc1ccc2c(c1)B(O)OC2)c1cccc(OCc2c(Cl)cccc2Cl)c1	> 99.5 µM
O=C(Nc1ccc2c(c1)CNC2)c1cc(Cl)cc2[nH]c(-c3cnccc3O)nc12	> 99.5 µM
O=C(Nc1ccc2c(c1)CNC2)c1cccc2[nH]c(=O)[nH]c12	1.47 µM
O=C(Nc1ccc2c(c1)CNC2)c1cc(Cl)cc2[nH]c(C3(n4ccnn4)CC3)nc12	> 99.5 µM
O=C(Nc1ccc2c(c1)CNC2)c1cc(Cl)cc(N2CCCC2)c1	42.8 µM
NCc1cc(Cl)cc(C(=O)Nc2ccc3c(c2)CNC3)c1	9.96 µM
O=C(Nc1cc2c(cc1Br)CNC2)c1cc(F)cc2[nH]ncc12	1.25 µM
O=C(Nc1ccc2c(c1)CNC2)c1cc(F)cc(-c2cccnc2)c1	2.68 µM
CNC(=O)[C@H](Nc1cc(Cl)cc2[nH]ncc12)c1ccc2c(c1)CNC2	88.4 µM
C=CC[C@H]1NCc2cc(NC(=O)c3cccc4c3CC(=O)N4)ccc21	8.03 µM
O=C(Nc1ccc2c(c1)CNC2)c1cc(F)cc2[nH]c(CC[C@H]3CCCOC3)nc12	3.78 µM
O=C(Nc1ccc2c(c1)CNC2)c1cccc2c1[C@]1(CCN(C(=O)OCc3ccccc3)C1)C(=O)N2	3.55 µM
Cc1cc(C(=O)Nc2ccc3c(c2)CNC3)c2cn[nH]c2c1	9.64 µM
CCc1cc2c(cc1NC(=O)c1cc(F)cc3[nH]ncc13)CNC2	1.59 µM
CO[C@H]1C[C@H](n2ncc3c(C(=O)Nc4ccc5c(c4)CNC5)cc(Cl)cc32)C1	2.55 µM
Cn1nccc1-c1cc(NC(=O)c2cc(F)cc3[nH]ncc23)cc2c1CNC2	1.43 µM
CCCCCC(=O)N[C@H](C(=O)Nc1ccc2[nH]ncc2c1)c1ccc(OCc2ccccc2)cc1	> 99.5 µM
Nc1nc2c(Br)cc(C(=O)Nc3ccc4c(c3)CNC4)cc2s1	> 99.5 µM
O=C(Nc1ccc2c(c1)CNC2)c1cccc2nc(O)ccc12	6.71 µM
O=C(Nc1ccc2c(c1)CNC2)c1cc(F)cc2c1CCC2	4.41 µM
Cn1cc(CNC(=O)[C@H](Nc2ccc3c(c2)CNC3)c2cc(Cl)cc(C3CC3)c2)cn1	1.07 µM
O=C(Nc1ccc2c(c1)CNC2)c1cc(F)cc(C=C2CCS(=O)(=O)CC2)c1	14.5 µM
O=C(NCC(F)F)[C@H](Nc1ccc2c(c1)CNC2)c1cc(Cl)ccc1Cl	3.01 µM

Compound	IC50
Nc1noc2cccc(C(=O)Nc3ccc4c(c3)CNC4)c12	76.8 µM
CCOC(=O)c1ncoc1CNC(=O)[C@H](Nc1ccc2c(c1)CNC2)c1cc(Cl)cc(C2CC2)c1	3.04 µM
CNC(=O)[C@H](Nc1ccc2c(c1)CNC2)c1cc(Cl)cc2[nH]c(-c3ccccc3)nc12	0.281 µM
O=C(Nc1ccc2c(c1)CN[C@H]2CO)c1cc(F)cc2[nH]ncc12	4.53 µM
Cc1c(C(=O)Nc2cc(-c3cccnc3)ccn2)cc(C2CC2)n1C	12.8 µM
O=C(NCC(F)(F)F)c1cc(Cl)c(F)cc1NS(=O)(=O)c1ccc(Oc2ccccc2Cl)cc1	9.32 µM
O=C(Nc1cnc2c(c1)CNCC2)c1cc(Cl)cc2[nH]ncc12	26.5 µM
COc1cccc(-c2nc3c(C(=O)Nc4ccc5c(c4)CNC5)cc(F)cc3[nH]2)c1	6.6 µM
O=C1c2c(O)ccc([N+](=O)[O-])c2C(=O)c2c([N+](=O)[O-])ccc(O)c21	> 100 µM
O=C(NCC(F)F)[C@H](Nc1ccc2c(c1)CNC2)c1cccc(Cl)c1	0.477 µM
Cc1ccc2cc(Cl)cc(C(=O)Nc3ccc4c(c3)CNC4)c2n1	> 99.5 µM
OCC#C[C@H](Nc1ccc2c(c1)CNC2)c1cc(Cl)cc2[nH]ncc12	22.4 µM
CN(C)C(=O)CCCc1nc2c(C(=O)Nc3ccc4c(c3)CNC4)cc(Cl)cc2[nH]1	> 99.5 µM
O=C(Nc1ccc2c(c1)CNC2)c1cc(Cl)cc2[nH]c(-c3cnc(C4CC4)o3)nc12	22.9 µM
O=C(Nc1ccc2c(c1)CNC2)c1cc(F)c2[nH]c(=O)[nH]c2c1	18 µM
C=CC[C@H](Nc1cc(Cl)cc(NC(=O)OCc2ccccc2)c1)c1cccc(-c2nn[nH]n2)c1	14.4 µM
COCc1cc(Cl)cc(C(=O)Nc2ccc3c(c2)CNC3)c1	73.2 µM
Cn1cc2c(C(=O)Nc3ccc4c(c3)CNC4)cc(F)cc2n1	7.38 µM
O=C(Nc1ccc2c(c1)CNC2)c1cc(Cl)cc2cc[nH]c12	16.3 µM
CCc1nc2c(C(=O)Nc3ccc4c(c3)CNC4)cc(Br)cc2[nH]1	55.9 µM
O=C(Nc1ccc2c(c1)CNC2)c1cc(F)cc(-c2ccc3c(=O)[nH]ncc3c2)c1	5.15 µM
Cc1cc(-c2ccc([C@@H](NC(=O)OCc3ccccc3)C(=O)Nc3cccc(CN)c3)cc2)cs1	3.42 µM
NCc1cccc(CNC(=O)[C@H](NC(=O)OCc2ccccc2)c2ccc(OCc3ccccc3)cc2)c1	13.3 µM
O=C(O)c1cc(Cl)ccc1NS(=O)(=O)c1ccc(-c2ccc(F)cc2)cc1	29.5 µM
COCCCNC(=O)[C@H](Nc1ccc2c(c1)CNC2)c1cc(Cl)cc(C2CC2)c1	0.583 µM
